How the values were obtained:
Assay in all cases: Weeding effect in post-emergence stage
Format in all cases: in vivo
Conditions in all cases: 250 g/ha; 2 leaf stage; 15 days after application; fresh weight control rate
Amaranthus retroflexus = tested on: Amaranthus retroflexus
Procedure, shortened: (§1)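 Greenhouse pot-grown weeds were sprayed at the 2-leaf stage, 2 weeks after sowing, with compound in acetone/Tween 80 plus 1.5 L/ha methyl oleate EC, at 500, 250, 125, 60, 30 or 15 g/ha. Fresh-weight growth control was scored 15 days later on a 0–5 scale, mean of three repeats.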

Setaria viridis = tested on: Setaria viridis
Procedure, shortened: as §1

Digitaria sanguinalis = tested on: Digitaria sanguinalis
Procedure, shortened: as §1

Echinochloa crusgali = tested on: Echinochloa crusgali
Procedure, shortened: as §1

Abutilon theophrasti = tested on: Abutilon theophrasti
Procedure, shortened: as §1

## CCOC(=O)OC(C)N(C(=O)c1ccc(C(F)(F)F)c([S+]([O-])CC)c1OC)c1nnc(C)o1 (mixture of isomers) [Compound 422]
Amaranthus retroflexus
  weeding effect in post-emergence stage, activity level (growth control rate), Amaranthus retroflexus: 5 (Level 5: growth control rate is above 85%)
Setaria viridis
  weeding effect in post-emergence stage, activity level (growth control rate), Setaria viridis: 5 (Level 5: growth control rate is above 85%)
Digitaria sanguinalis
  weeding effect in post-emergence stage, activity level (growth control rate), Digitaria sanguinalis: 5 (Level 5: growth control rate is above 85%)
Echinochloa crusgali
  weeding effect in post-emergence stage, activity level (growth control rate), Echinochloa crusgali: 5 (Level 5: growth control rate is above 85%)
Abutilon theophrasti
  weeding effect in post-emergence stage, activity level (growth control rate), Abutilon theophrasti: 5 (Level 5: growth control rate is above 85%)

## COc1c(C(=O)Nc2nnc(C)o2)ccc(C(F)(F)F)c1[S@+]([O-])CC(=O)O [Compound 341]
Amaranthus retroflexus
  weeding effect in post-emergence stage, activity level (growth control rate), Amaranthus retroflexus: 5 (Level 5: growth control rate is above 85%)
Setaria viridis
  weeding effect in post-emergence stage, activity level (growth control rate), Setaria viridis: 5 (Level 5: growth control rate is above 85%)
Digitaria sanguinalis
  weeding effect in post-emergence stage, activity level (growth control rate), Digitaria sanguinalis: 5 (Level 5: growth control rate is above 85%)
Echinochloa crusgali
  weeding effect in post-emergence stage, activity level (growth control rate), Echinochloa crusgali: 5 (Level 5: growth control rate is above 85%)
Abutilon theophrasti
  weeding effect in post-emergence stage, activity level (growth control rate), Abutilon theophrasti: 5 (Level 5: growth control rate is above 85%)

## C#CCC[S@@+]([O-])c1c(C(F)(F)F)ccc(C(=O)Nc2nnc(C)o2)c1F [Compound 24]
Amaranthus retroflexus
  weeding effect in post-emergence stage, activity level (growth control rate), Amaranthus retroflexus: 5 (Level 5: growth control rate is above 85%)
Setaria viridis
  weeding effect in post-emergence stage, activity level (growth control rate), Setaria viridis: 5 (Level 5: growth control rate is above 85%)
Digitaria sanguinalis
  weeding effect in post-emergence stage, activity level (growth control rate), Digitaria sanguinalis: 5 (Level 5: growth control rate is above 85%)
Echinochloa crusgali
  weeding effect in post-emergence stage, activity level (growth control rate), Echinochloa crusgali: 5 (Level 5: growth control rate is above 85%)
Abutilon theophrasti
  weeding effect in post-emergence stage, activity level (growth control rate), Abutilon theophrasti: 5 (Level 5: growth control rate is above 85%)

## COc1c(C(=O)Nc2nnc(C)o2)ccc(C(F)(F)F)c1[S@+]([O-])CCO [Compound 334]
Amaranthus retroflexus
  weeding effect in post-emergence stage, activity level (growth control rate), Amaranthus retroflexus: 5 (Level 5: growth control rate is above 85%)
Setaria viridis
  weeding effect in post-emergence stage, activity level (growth control rate), Setaria viridis: 5 (Level 5: growth control rate is above 85%)
Digitaria sanguinalis
  weeding effect in post-emergence stage, activity level (growth control rate), Digitaria sanguinalis: 5 (Level 5: growth control rate is above 85%)
Echinochloa crusgali
  weeding effect in post-emergence stage, activity level (growth control rate), Echinochloa crusgali: 5 (Level 5: growth control rate is above 85%)
Abutilon theophrasti
  weeding effect in post-emergence stage, activity level (growth control rate), Abutilon theophrasti: 5 (Level 5: growth control rate is above 85%)

## COc1c(C(=O)Nc2nnc(C)o2)ccc(C(F)(F)F)c1[S@@+]([O-])C(F)(C(F)(F)F)C(F)(F)F [Compound 330]
Amaranthus retroflexus
  weeding effect in post-emergence stage, activity level (growth control rate), Amaranthus retroflexus: 5 (Level 5: growth control rate is above 85%)
Setaria viridis
  weeding effect in post-emergence stage, activity level (growth control rate), Setaria viridis: 5 (Level 5: growth control rate is above 85%)
Digitaria sanguinalis
  weeding effect in post-emergence stage, activity level (growth control rate), Digitaria sanguinalis: 5 (Level 5: growth control rate is above 85%)
Echinochloa crusgali
  weeding effect in post-emergence stage, activity level (growth control rate), Echinochloa crusgali: 5 (Level 5: growth control rate is above 85%)
Abutilon theophrasti
  weeding effect in post-emergence stage, activity level (growth control rate), Abutilon theophrasti: 5 (Level 5: growth control rate is above 85%)

## CSc1c(C(=O)Nc2nnc(C)o2)ccc(C(F)(F)F)c1[S@+]([O-])CC#N [Compound 564]
Amaranthus retroflexus
  weeding effect in post-emergence stage, activity level (growth control rate), Amaranthus retroflexus: 5 (Level 5: growth control rate is above 85%)
Setaria viridis
  weeding effect in post-emergence stage, activity level (growth control rate), Setaria viridis: 5 (Level 5: growth control rate is above 85%)
Digitaria sanguinalis
  weeding effect in post-emergence stage, activity level (growth control rate), Digitaria sanguinalis: 5 (Level 5: growth control rate is above 85%)
Echinochloa crusgali
  weeding effect in post-emergence stage, activity level (growth control rate), Echinochloa crusgali: 5 (Level 5: growth control rate is above 85%)
Abutilon theophrasti
  weeding effect in post-emergence stage, activity level (growth control rate), Abutilon theophrasti: 5 (Level 5: growth control rate is above 85%)

## COc1c(C(=O)Nc2nnc(C)o2)ccc(C(F)(F)F)c1[S@+]([O-])CCN(C)C [Compound 340]
Amaranthus retroflexus
  weeding effect in post-emergence stage, activity level (growth control rate), Amaranthus retroflexus: 5 (Level 5: growth control rate is above 85%)
Setaria viridis
  weeding effect in post-emergence stage, activity level (growth control rate), Setaria viridis: 5 (Level 5: growth control rate is above 85%)
Digitaria sanguinalis
  weeding effect in post-emergence stage, activity level (growth control rate), Digitaria sanguinalis: 5 (Level 5: growth control rate is above 85%)
Echinochloa crusgali
  weeding effect in post-emergence stage, activity level (growth control rate), Echinochloa crusgali: 5 (Level 5: growth control rate is above 85%)
Abutilon theophrasti
  weeding effect in post-emergence stage, activity level (growth control rate), Abutilon theophrasti: 5 (Level 5: growth control rate is above 85%)

## CC=CC[S+]([O-])c1c(C(F)(F)F)ccc(C(=O)Nc2nnc(C)o2)c1F (stereo not drawn) [Compound 21]
Amaranthus retroflexus
  weeding effect in post-emergence stage, activity level (growth control rate), Amaranthus retroflexus: 5 (Level 5: growth control rate is above 85%)
Setaria viridis
  weeding effect in post-emergence stage, activity level (growth control rate), Setaria viridis: 5 (Level 5: growth control rate is above 85%)
Digitaria sanguinalis
  weeding effect in post-emergence stage, activity level (growth control rate), Digitaria sanguinalis: 5 (Level 5: growth control rate is above 85%)
Echinochloa crusgali
  weeding effect in post-emergence stage, activity level (growth control rate), Echinochloa crusgali: 5 (Level 5: growth control rate is above 85%)
Abutilon theophrasti
  weeding effect in post-emergence stage, activity level (growth control rate), Abutilon theophrasti: 5 (Level 5: growth control rate is above 85%)

## COc1c(C(=O)Nc2nnc(C)o2)ccc(C(F)(F)F)c1[S@+]([O-])C1COC1 [Compound 346]
Amaranthus retroflexus
  weeding effect in post-emergence stage, activity level (growth control rate), Amaranthus retroflexus: 5 (Level 5: growth control rate is above 85%)
Setaria viridis
  weeding effect in post-emergence stage, activity level (growth control rate), Setaria viridis: 5 (Level 5: growth control rate is above 85%)
Digitaria sanguinalis
  weeding effect in post-emergence stage, activity level (growth control rate), Digitaria sanguinalis: 5 (Level 5: growth control rate is above 85%)
Echinochloa crusgali
  weeding effect in post-emergence stage, activity level (growth control rate), Echinochloa crusgali: 5 (Level 5: growth control rate is above 85%)
Abutilon theophrasti
  weeding effect in post-emergence stage, activity level (growth control rate), Abutilon theophrasti: 5 (Level 5: growth control rate is above 85%)

## CC[S+]([O-])c1c(C(F)(F)F)ccc(C(=O)N(c2nnc(C)o2)C(C)OC(=O)OC)c1OC (mixture of isomers) [Compound 421]
Amaranthus retroflexus
  weeding effect in post-emergence stage, activity level (growth control rate), Amaranthus retroflexus: 5 (Level 5: growth control rate is above 85%)
Setaria viridis
  weeding effect in post-emergence stage, activity level (growth control rate), Setaria viridis: 5 (Level 5: growth control rate is above 85%)
Digitaria sanguinalis
  weeding effect in post-emergence stage, activity level (growth control rate), Digitaria sanguinalis: 5 (Level 5: growth control rate is above 85%)
Echinochloa crusgali
  weeding effect in post-emergence stage, activity level (growth control rate), Echinochloa crusgali: 5 (Level 5: growth control rate is above 85%)
Abutilon theophrasti
  weeding effect in post-emergence stage, activity level (growth control rate), Abutilon theophrasti: 5 (Level 5: growth control rate is above 85%)

## CSC[S@+]([O-])c1c(C(F)(F)F)ccc(C(=O)Nc2nnc(C)o2)c1F [Compound 203]
Amaranthus retroflexus
  weeding effect in post-emergence stage, activity level (growth control rate), Amaranthus retroflexus: 5 (Level 5: growth control rate is above 85%)
Setaria viridis
  weeding effect in post-emergence stage, activity level (growth control rate), Setaria viridis: 5 (Level 5: growth control rate is above 85%)
Digitaria sanguinalis
  weeding effect in post-emergence stage, activity level (growth control rate), Digitaria sanguinalis: 5 (Level 5: growth control rate is above 85%)
Echinochloa crusgali
  weeding effect in post-emergence stage, activity level (growth control rate), Echinochloa crusgali: 5 (Level 5: growth control rate is above 85%)
Abutilon theophrasti
  weeding effect in post-emergence stage, activity level (growth control rate), Abutilon theophrasti: 5 (Level 5: growth control rate is above 85%)

## COc1c(C(=O)Nc2nnc(C)o2)ccc(C(F)(F)F)c1[S@@+]([O-])C(F)(F)C(F)(F)F [Compound 327]
Amaranthus retroflexus
  weeding effect in post-emergence stage, activity level (growth control rate), Amaranthus retroflexus: 5 (Level 5: growth control rate is above 85%)
Setaria viridis
  weeding effect in post-emergence stage, activity level (growth control rate), Setaria viridis: 5 (Level 5: growth control rate is above 85%)
Digitaria sanguinalis
  weeding effect in post-emergence stage, activity level (growth control rate), Digitaria sanguinalis: 5 (Level 5: growth control rate is above 85%)
Echinochloa crusgali
  weeding effect in post-emergence stage, activity level (growth control rate), Echinochloa crusgali: 5 (Level 5: growth control rate is above 85%)
Abutilon theophrasti
  weeding effect in post-emergence stage, activity level (growth control rate), Abutilon theophrasti: 5 (Level 5: growth control rate is above 85%)

## CCn1nnnc1NC(=O)c1ccc(C(F)(F)F)c([S@+]([O-])CC)c1OC [Compound 446]
Amaranthus retroflexus
  weeding effect in post-emergence stage, activity level (growth control rate), Amaranthus retroflexus: 5 (Level 5: growth control rate is above 85%)
Setaria viridis
  weeding effect in post-emergence stage, activity level (growth control rate), Setaria viridis: 5 (Level 5: growth control rate is above 85%)
Digitaria sanguinalis
  weeding effect in post-emergence stage, activity level (growth control rate), Digitaria sanguinalis: 5 (Level 5: growth control rate is above 85%)
Echinochloa crusgali
  weeding effect in post-emergence stage, activity level (growth control rate), Echinochloa crusgali: 5 (Level 5: growth control rate is above 85%)
Abutilon theophrasti
  weeding effect in post-emergence stage, activity level (growth control rate), Abutilon theophrasti: 5 (Level 5: growth control rate is above 85%)

## CSc1c(C(=O)Nc2nnc(C)o2)ccc(C(F)(F)F)c1[S@+]([O-])CC(F)(F)F [Compound 556]
Amaranthus retroflexus
  weeding effect in post-emergence stage, activity level (growth control rate), Amaranthus retroflexus: 5 (Level 5: growth control rate is above 85%)
Setaria viridis
  weeding effect in post-emergence stage, activity level (growth control rate), Setaria viridis: 5 (Level 5: growth control rate is above 85%)
Digitaria sanguinalis
  weeding effect in post-emergence stage, activity level (growth control rate), Digitaria sanguinalis: 5 (Level 5: growth control rate is above 85%)
Echinochloa crusgali
  weeding effect in post-emergence stage, activity level (growth control rate), Echinochloa crusgali: 5 (Level 5: growth control rate is above 85%)
Abutilon theophrasti
  weeding effect in post-emergence stage, activity level (growth control rate), Abutilon theophrasti: 5 (Level 5: growth control rate is above 85%)

## CC#CC[S@@+]([O-])c1c(C(F)(F)F)ccc(C(=O)Nc2nnc(C)o2)c1OC [Compound 316]
Amaranthus retroflexus
  weeding effect in post-emergence stage, activity level (growth control rate), Amaranthus retroflexus: 5 (Level 5: growth control rate is above 85%)
Setaria viridis
  weeding effect in post-emergence stage, activity level (growth control rate), Setaria viridis: 5 (Level 5: growth control rate is above 85%)
Digitaria sanguinalis
  weeding effect in post-emergence stage, activity level (growth control rate), Digitaria sanguinalis: 5 (Level 5: growth control rate is above 85%)
Echinochloa crusgali
  weeding effect in post-emergence stage, activity level (growth control rate), Echinochloa crusgali: 5 (Level 5: growth control rate is above 85%)
Abutilon theophrasti
  weeding effect in post-emergence stage, activity level (growth control rate), Abutilon theophrasti: 5 (Level 5: growth control rate is above 85%)

From patent US12643871B2, “Aryl formamide compound containing chiral sulfur oxide or salt thereof, preparation method, herbicidal composition and use thereof” (Qingdao Kingagroot Chemical Compound Co., Ltd., priority 2019, dated 2026)
